Where two headings read alike, the source gives them in different places.
Legend:
[1] = test system: P388 leukemia; design: species or system CDF1-strain mice (male); conditions: mouse, in vivo
[2] = test system: Ehrlich ascites carcinoma; test: animal or person; format: in vivo, mice (CD2F1-strain Swiss, female); conditions: Mus musculus, ip, 1440 h, read-out: T/C (%)
[3] = test system: Walker carcinosarcoma 256; design: species or system Sprague-Dawley rats (male); conditions: rat, in vivo

`O=C(NCCF)Nc1ccc(N(CCF)CCF)cc1` [Compound 8] was tested, and the “T/C (%)” value ([1]; 25 mg/kg) was 134%.
Compound `CCN(CCCl)c1ccc(NC(=O)NCCCl)cc1` [Compound 10] has a response vs control in vivo at 100 mg/kg [2] of 222%.
With `CCCN(CCCl)c1cccc(NC(=O)NCCBr)c1` [Compound 11] the response vs control in vivo at 100 mg/kg [2] was 203%.
With `CN(CCBr)c1ccc(NC(=O)NCCBr)cc1` [Compound 12] the “T/C (%)” value ([3]; 50 mg/kg) was 329%.
With `CC(C)N(CCBr)c1ccc(NC(=O)NCCCl)cc1` [Compound 13] the “T/C (%)” value ([1]; 100 mg/kg) was 134%.
In the case of `CCCCCCN(CCCl)c1ccc(NC(=O)NCCF)cc1` [Compound 14], the response vs control in vivo at 50 mg/kg [2] is reported as 275%.
In the case of `CN(CCI)c1cccc(NC(=O)NCCI)c1` [Compound 15], the “T/C (%)” value ([3]; 150 mg/kg) is reported as 220%.
`C=CCN(CCCl)c1ccc(NC(=O)NCCCl)cc1` [Compound 16] showed a response vs control in vivo at 150 mg/kg [2] of 235%.
`C#CN(CCCl)c1ccc(NC(=O)NCCBr)cc1` [Compound 17] gave a response vs control in vivo at 100 mg/kg [2] of 294%.
For `O=C(NCCCl)Nc1ccc(N(CCl)CCCl)cc1` [Compound 18], the “T/C (%)” value ([1]; 25 mg/kg) was 154%.
In the case of `O=C(NCCCl)Nc1ccc(N(CCBr)CCCBr)cc1` [Compound 19], the “T/C (%)” value ([3]; 50 mg/kg) is reported as 329%.
With `COCCN(CCCl)c1ccc(NC(=O)NCCCl)cc1` [Compound 20] the response vs control in vivo at 50 mg/kg [2] was 281%.
For `CCSCCN(CCCl)c1ccc(NC(=O)NCCBr)cc1` [Compound 21], the “T/C (%)” value ([3]; 100 mg/kg) was 207%.
With `N#CCCN(CCCl)c1ccc(NC(=O)NCCI)cc1` [Compound 22] the “T/C (%)” value ([3]; 50 mg/kg) was 256%.
For `O=C(NCCF)Nc1ccc(N(CCCl)CCOc2ccccc2)cc1` [Compound 23], the “T/C (%)” value ([1]; 50 mg/kg) was 156%.
For `CC=CCN(CCCl)c1cccc(NC(=O)NCCCl)c1` [Compound 24], the response vs control in vivo at 150 mg/kg [2] was 234%.
`C=CCCCN(CCCl)c1ccc(NC(=O)NCCCl)cc1` [Compound 25] gave a response vs control in vivo at 100 mg/kg [2] of 178%.
In the case of `CC(C)C=CCN(CCCl)c1ccc(NC(=O)NCCBr)cc1` [Compound 26], the “T/C (%)” value ([3]; 200 mg/kg) is reported as 216%.
Compound `O=C(NCCCl)Nc1cccc(N(CC=CCCl)CCCl)c1` [Compound 27] has a response vs control in vivo at 50 mg/kg [2] of 246%.
With `C=CCC(CBr)N(CCBr)c1ccc(NC(=O)NCCBr)cc1` (stereo not shown) [Compound 28] the “T/C (%)” value ([3]; 25 mg/kg) was 182%.
For `C=CC(C#N)N(CCCl)c1ccc(NC(=O)NCCCl)cc1` (stereo not shown) [Compound 29], the “T/C (%)” value ([1]; 25 mg/kg) was 187%.
Compound `CCCOC=CN(CCI)c1ccccc1NC(=O)NCCBr` [Compound 30] has a response vs control in vivo at 200 mg/kg [2] of 205%.
For `CSC=CCN(CCCl)c1ccc(NC(=O)NCCCl)cc1` [Compound 31], the response vs control in vivo at 150 mg/kg [2] was 184%.
`O=C(NCCCl)Nc1ccc(N(CCF)CCC=CCOc2ccccc2)cc1` [Compound 32] was tested, and the “T/C (%)” value ([1]; 50 mg/kg) was 150%.
With `C#CCN(CCCl)c1cccc(NC(=O)NCCCl)c1` [Compound 33] the “T/C (%)” value ([3]; 200 mg/kg) was 169%.
`C#CC(C)N(CCI)c1ccc(NC(=O)NCCF)cc1` (stereo not shown) [Compound 34] gave a response vs control in vivo at 150 mg/kg [2] of 199%.
For `CC#CCCN(CCBr)c1ccc(NC(=O)NCCCl)cc1` [Compound 35], the response vs control in vivo at 150 mg/kg [2] was 191%.
In the case of `C#CCCCCN(CCCl)c1ccc(NC(=O)NCCCl)cc1` [Compound 36], the response vs control in vivo at 100 mg/kg [2] is reported as 186%.

From patent US4803223A (priority 1985, dated 1989)
